{"source": "paper PMC6562543", "about": "(Marine Drugs, 2019)", "tested_on": "CaV2.2 channels (α1B, α2δ1, and β3)", "type": "cell-based, rat", "data": [{"smiles": "CSCC[C@@H]1NC(=O)[C@H](CC(C)C)NC(=O)[C@H](CCCNC(=N)N)NC(=O)[C@H](CO)NC(=O)[C@@H]2CSSC[C@@H]3NC(=O)[C@H](CO)NC(=O)CNC(=O)[C@H]([C@@H](C)O)NC(=O)[C@H](CSSC[C@H](N)C(=O)N[C@@H](CCCCN)C(=O)NCC(=O)N[C@@H](CCCCN)C(=O)NCC(=O)N[C@@H](C)C(=O)N[C@@H](CCCCN)C(=O)N2)NC(=O)[C@H](CSSC[C@@H](C(N)=O)NC(=O)[C@H](CCCCN)NC(=O)CNC(=O)[C@H](CO)NC(=O)[C@H](CCCNC(=N)N)NC3=O)NC(=O)[C@H](CC(=O)O)NC(=O)[C@H](Cc2ccc(O)cc2)NC1=O", "note": "[MVIIA, ω-Conotoxin MVIIA]", "values": [{"measurement": "Hill slope", "value": 1.296}, {"measurement": "inhibitory effect on CaV2.2 channel", "setting": "2 µM", "value": "more than 90%"}, {"measurement": "reduction of ICa amplitude", "setting": "SEM", "value": "98.24 ± 0.708", "unit": "%"}]}]}
